The values that follow come from PubChem BioAssay (NCI).

Holding throughout (experiment): inhibition of tumour cell growth, NCI panel, 48 h
Assay [1] has as its system NCI-H23 lung.
Assay [2] has as its system A498 renal.
Assay [3] deals with HT29 colon.
Assay [4] concerns SW-620 colon.
Assay [5] deals with MDA-MB-435.
In assay [6] the test system is CAKI-1 renal.
Assay [7] relates to ACHN renal.
Assay [8] concerns EKVX NSCLC.
In assay [9] the test system is HCT-116 colon.
Assay [10] relates to KM12 colon.

SMILES strings stand for the structures. Where “and” joins values, the source holds several entries; their conditions need not be identical. Equal values may be shown once.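 Grown in 96-well plates, cells were treated for 48 hours with each compound at five concentrations. Insufficient inhibition: endpoint recorded as highest concentration tested. GI50 marks 50% less growth. Definition used: TGI = concentration required for complete inhibition of growth.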 Where only a bound is given, the exact number is not on record here.

Turning to `COc1cc2c(cc1OC)[C@H]1C(=O)c3cc4c(cc3[C@H]1N(C)C2=O)OCO4`, the TGI was above 74.1 µM in assay [1]; above 79.5 µM in assay [2]; above 100 µM in [3]; above 100 µM in assay [4]; above 100 µM in [5]; above 100 µM in assay [6]. For the same molecule, the TGI in assay [7], in [8], in assay [9] and in assay [10] was above 100 µM each time.

Regarding `COc1cc(C2c3cc4c(cc3[C@@H](Nc3cccc(O)c3)C3COC(=O)[C@H]23)OCO4)cc(OC)c1O` (some centres not stated), the GI50 in [1] was 0.445 µM; in assay [2], 0.86 µM; in assay [4], 0.77 µM; in assay [6], 0.242 µM and 0.69 µM; in [7], 0.356 µM; in assay [9], 0.804 µM. Also, the TGI amounted to 5.52 µM in [1]; 5.9 µM in assay [2]; 18.8 µM in assay [3]; 41 µM in [4]; 18.8 µM in assay [5]; 4.59 µM in assay [6]. For the same molecule, the TGI in assay [7] was 3.56 µM; in assay [8] it was 15 µM; in assay [9], 23.3 µM; in assay [10], 11.6 µM.

As to `O=c1[nH]c(-c2ccccn2)nc2sc3c(c12)CCCCCC3`, the GI50 is 11 µM in [1]; 1.31 µM in assay [2]; 7.69 µM in assay [3]; 4.85 µM in [4]; above 100 µM in assay [5]; 3.29 µM in assay [6]. Moreover, the GI50 in assay [7] is 5.19 µM; in [9] it was 1.37 µM; in [10] it was 4.1 µM. Also, the TGI in assay [1], in assay [2], in assay [3], in [4], in [5] and in [6] was above 100 µM in each case. Besides, the TGI in [7], in [9] and in assay [10] was above 100 µM throughout.

For `Cc1cc(N)c2ccccc2[n+]1CCCCCCCCCC[n+]1c(C)cc(N)c2ccccc21`, the GI50 was 0.236 µM and 0.484 µM in [1]; 0.0691 µM in assay [2]; 0.223 µM and 1.55 µM in assay [3]; 0.508 µM in assay [4]; 0.245 µM in [5]; 1.37 µM and 3.27 µM in assay [6]. Besides, the GI50 in [9] is 0.28 µM and 2 µM; in assay [10] it was 0.145 µM. In addition, the TGI in assay [1] is > 12.4 µM and 3.96 µM and 3.89 µM; in assay [3], 1.51 µM and 5.47 µM and 4.62 µM; in [4], > 50 µM and 33.9 µM and > 100 µM; in [5] it was 0.926 µM and 3.18 µM; in assay [6] it was > 50 µM and 27.7 µM and 18.6 µM; in assay [7] it was > 50 µM and 7.15 µM and 17.9 µM. Also, the TGI in [8] was > 50 µM and 49.4 µM and 26.9 µM; in assay [10], 0.65 µM and 1.49 µM.

Take `CC1(C)CC2(C)OC2C2(C1)N=NC(=Nc1ccccc1)O2` (configuration not stated): the GI50 was 5.93 µM in assay [1]; 16.7 µM in [2]; 2.95 µM in assay [3]; 2.35 µM in assay [4]; 3.01 µM in assay [5]; 2.68 µM in [6]. In addition, the results for the GI50 in assay [7], in assay [9] and in assay [10] were 2 µM, 1.29 µM and 13.6 µM, respectively. Moreover, the TGI in assay [1] came to 29.9 µM; in [2], 34.8 µM; in assay [3], 10.9 µM; in assay [4], 9.28 µM; in assay [5], 24.2 µM; in assay [6] it was 12.5 µM. The TGI in assay [7] was found to be 6.12 µM; in assay [9], 6.45 µM; in assay [10], 28.6 µM.

For `COc1ccc(N(Cc2cc(OC)c(OC)c(OC)c2)C2OC(=O)c3ccccc32)cc1` (configuration not stated), the GI50 is 1.15 µM in assay [1]; 0.249 µM in [2]; 0.365 µM in assay [3]; 0.374 µM in [4]; 0.165 µM in assay [5]; 0.532 µM in assay [6]. The GI50 is 0.69 µM in [7], 0.426 µM in [9] and 0.434 µM in assay [10]. For the same molecule, the TGI was above 100 µM in assay [1]; 1.61 µM in [2]; above 43.1 µM in assay [3]; above 100 µM in assay [4]; 0.433 µM in assay [5]; above 100 µM in assay [6]. The TGI in assay [7] is above 100 µM; in [9], above 100 µM; in [10], above 36.7 µM.

For the molecule `CCOC(=O)C1=C(c2ccccc2)N(Cc2ccccc2)C2(O)C=CC(=O)C3C(=O)N(c4ccccc4)C(=O)C132` (configuration not stated), the GI50 in [1] is 2.12 µM; in assay [2], 1.62 µM; in assay [3], 1.93 µM; in [4], 1.81 µM; in assay [5], 1.95 µM; in assay [6] it was 3.08 µM. Moreover, the GI50 in [7] was 1.9 µM; in assay [8], 2.43 µM; in assay [10] it was 1.74 µM. The TGI in assay [1] came to 5.59 µM; in assay [2], 3.12 µM; in assay [3], 4.83 µM; in assay [4], 3.91 µM; in assay [5] it was 4.51 µM; in assay [6] it was 9.71 µM. In addition, the TGI in assay [7] came out at 4.23 µM; in assay [8], 6.51 µM; in assay [10], 3.21 µM.

`C#Cc1ccc(-n2c(/C=C/c3cc(OC)c(OC)c(OC)c3)nc3ncccc3c2=O)cc1`: the GI50 was 17.3 µM in assay [1]; 2.63 µM in assay [2]; 3.92 µM in assay [3]; 3.29 µM in assay [4]; 1.98 µM in assay [5]; 6.07 µM in assay [6]. Further, the GI50 in assay [7] was 6.63 µM; in [9] it was 5.17 µM; in [10], 3.32 µM. Moreover, the TGI in [1] was above 100 µM; in assay [2], 9.84 µM; in assay [3], 15.1 µM; in [4] it was 49.6 µM; in assay [5] it was 5.35 µM; in assay [6], above 100 µM. Besides, the TGI in [7] was above 100 µM; in assay [9], above 100 µM; in [10] it was 12.8 µM.
